Test results from patent US8846933B2, “N-link hydroxamic acid derivatives useful as antibacterial agents” (Pfizer Inc., priority 2009, dated 2014).

How the values were obtained:
Type in all cases: cell-based
[1] = tested on: Pseudomonas aeruginosa UI-18: Wild-type (PA-7); experiment: MIC determination (CLSI), strain PA-7; conditions: Pseudomonas aeruginosa UI-18, wild-type; unit assumed
Summary of the method: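 MIC determined by broth dilution per CLSI M7-A7 guidelines with M100-S18 interpretive standards. Test organism: wild-type Pseudomonas aeruginosa UI-18, designated PA-7.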

[2] = tested on: Escherichia coli EC-1: VOGEL, mouse virulent; experiment: MIC determination (CLSI), strain EC-1; conditions: Escherichia coli EC-1, VOGEL, mouse virulent; unit assumed
Summary of the method: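 The mouse-virulent VOGEL isolate of E. coli, EC-1, served as test organism. Minimum inhibitory concentration was measured by CLSI dilution methodology (M7-A7; M100-S18 standards).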

[3] = tested on: Acinetobacter baumanii/haemolyticus: Multidrug-resistant clinical isolate (AB-3167); experiment: MIC determination (CLSI), strain AB-3167; conditions: unit assumed
Summary of the method: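 MIC measured by broth dilution per CLSI guidelines (M7-A7, M100-S18) against multidrug-resistant clinical isolate AB-3167 of Acinetobacter baumanii/haemolyticus.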

Compound | PA-7 (MIC) [1] [µg/mL] | EC-1 (MIC) [2] [µg/mL] | AB-3167 (MIC) [3] [µg/mL]
COc1cnn(-c2ccc(-c3ccn(CC[C@](C)(C(=O)NO)S(C)(=O)=O)c(=O)c3)cc2)n1 [Example 58, (2R)-N-hydroxy-4-{4-[4-(4-methoxy-2H-1,2,3-triazol-2-yl)phenyl]-2-oxopyridin-1(2H)-yl}-2-methyl-2-(methylsulfonyl)butanamide] | 0.5 | 0.03 | > 64
C[C@@](CCn1ccc(-c2ccc(OCC3CC(CO)C3)cc2)cc1=O)(C(=O)NO)S(C)(=O)=O (stereo partly drawn) [Example 10-D, (2R)-N-hydroxy-4-[4-(4-{[3-(hydroxymethyl)cyclobutyl]methoxy}phenyl)-2-oxopyridin-1(2H)-yl]-2-methyl-2-(methylsulfonyl)butanamide] | 1 | 0.25 | > 64
CCC(CCn1ccc(-c2ccccc2)cc1=O)(C(=O)NO)S(C)(=O)=O (stereo not drawn) [Example 54, 2-Ethyl-N-hydroxy-2-(methylsulfonyl)-4-(2-oxo-4-phenylpyridin-1(2H)-yl)butanamide] | 16 | 16 | 64
CCS(=O)(=O)C(C)(CCn1ccc(-c2ccccc2)cc1=O)C(=O)NO (stereo not drawn) [Example 57, 2-(ethylsulfonyl)-N-hydroxy-2-methyl-4-(2-oxo-4-phenylpyridin-1(2H)-yl)butanamide] | 64 | 8 | 16
C[C@@](CCn1ccc(-c2ccc(C(F)(F)F)cc2)cc1=O)(C(=O)NO)S(C)(=O)=O [Example 68-I, (2R)-N-hydroxy-2-methyl-2-(methylsulfonyl)-4-{2-oxo-4-[4-(trifluoromethyl)phenyl]pyridin-1(2H)-yl}butanamide] | 1 | 1 | > 64
C[C@@](CCn1ccc(-c2ccc(C3CCOCC3)cc2)cc1=O)(C(=O)NO)S(C)(=O)=O [Example 47, (2R)-N-hydroxy-2-methyl-2-(methylsulfonyl)-4-{2-oxo-4-[4-(tetrahydro-2H-pyran-4-yl)phenyl]pyridin-1(2H)-yl}butanamide] | 2 | 0.5 | > 64
C[C@@](CCn1ccc(-c2ccc(OCCCC#N)cc2)cc1=O)(C(=O)NO)S(C)(=O)=O [Example 10-C, (2R)-4-{4-[4-(3-cyanopropoxy)phenyl]-2-oxopyridin-1(2H)-yl}-N-hydroxy-2-methyl-2-(methylsulfonyl)butanamide] | 1 | 0.5 | > 64
C[C@@](CCn1ccc(-c2ccc(OC[C@H]3CC[C@H](O)CC3)cc2)cc1=O)(C(=O)NO)S(C)(=O)=O [Example 9, (2R)-N-hydroxy-4-[4-{4-[(trans-4-hydroxycyclohexyl)methoxy]phenyl}-2-oxopyridin-1(2H)-yl]-2-methyl-2-(methylsulfonyl)butanamide] | 1 | 0.25 | 32
C[C@@](CCn1ccc(C2=CCCCCC2)cc1=O)(C(=O)NO)S(C)(=O)=O [Example 68-L, (2R)-4-(4-cyclohept-1-en-1-yl-2-oxopyridin-1(2H)-yl)-N-hydroxy-2-methyl-2-(methylsulfonyl)butanamide] | 1 | 2 | > 64
C[C@@](CCn1ccc(C2=CCN(c3ncccn3)CC2)cc1=O)(C(=O)NO)S(C)(=O)=O [Example 67, (2R)-N-Hydroxy-2-methyl-2-(methylsulfonyl)-4-(2-oxo-1′-pyrimidin-2-yl-1′,2′,3′,6′-tetrahydro-4,4′-bipyridin-1(2H)-yl)butanamide] | 8 | 8 | > 64
CC(CCn1ccc(-c2cc3ccccc3o2)cc1=O)(C(=O)NO)S(C)(=O)=O (racemic) [Example 33, (+/−)-4-[4-(1-benzofuran-2-yl)-2-oxopyridin-1(2H)-yl]-N-hydroxy-2-methyl-2-(methylsulfonyl)butanamide] | 2 | 1 | > 64
C[C@@](CCn1ccc(C2=CCCCC2)cc1=O)(C(=O)NO)S(C)(=O)=O [Example 68-K, (2R)-4-(4-cyclohex-1-en-1-yl-2-oxopyridin-1(2H)-yl)-N-hydroxy-2-methyl-2-(methylsulfonyl)butanamide] | 1 | 4 | > 64
Cc1cc(-c2ccn(CC[C@](C)(C(=O)NO)S(C)(=O)=O)c(=O)c2)ccc1-c1cc(CO)no1 [Example 63, N-Hydroxy-4-[4-{4-[3-(hydroxymethyl)isoxazol-5-yl]-3-methylphenyl}-2-oxopyridin-1(2H)-yl]-2-methyl-2-(methylsulfonyl)butanamide] | 4 | 2 | > 64
CC(C)(O)C(O)CCOc1ccc(-c2ccn(CC[C@](C)(C(=O)NO)S(C)(=O)=O)c(=O)c2)cc1 (stereo partly drawn) [Example 10-K, (2R)-4-[4-{4-[(3,4-dihydroxy-4-methylpentyl)oxy]phenyl}-2-oxopyridin-1(2H)-yl]-N-hydroxy-2-methyl-2-(methylsulfonyl)butanamide] | 8 | 8 | > 64
Cn1nccc1-c1ccc(-c2ccn(CC[C@](C)(C(=O)NO)S(C)(=O)=O)c(=O)c2)cc1 [Example 24, (2R)-N-hydroxy-2-methyl-4-{4-[4-(1-methyl-1H-pyrazol-5-yl)phenyl]-2-oxopyridin-1(2H)-yl}-2-(methylsulfonyl)butanamide] | 2 | 1 | > 64
C[C@@](CCn1ccc(-c2ccc(Cl)cc2F)cc1=O)(C(=O)NO)S(C)(=O)=O [Example 20, (2R)-4-[4-(4-chloro-2-fluorophenyl)-2-oxopyridin-1(2H)-yl]-N-hydroxy-2-methyl-2-(methylsulfonyl)butanamide] | 0.25 | 0.25 | > 64
C[C@@](CCn1ccc(-c2cccc(F)c2F)cc1=O)(C(=O)NO)S(C)(=O)=O [Example 14, (2R)-4-[4-(2,3-difluorophenyl)-2-oxopyridin-1(2H)-yl]-N-hydroxy-2-methyl-2-(methylsulfonyl)butanamide] | 0.5 | 0.5 | > 64
C[C@@](CCn1ccc(-c2ccccc2)c(F)c1=O)(C(=O)NO)S(C)(=O)=O [Example 55, (2R)-4-(3-fluoro-2-oxo-4-phenylpyridin-1(2H)-yl)-N-hydroxy-2-methyl-2-(methylsulfonyl)butanamide] | 1 | 8 | > 64
C[C@@](CCn1ccc(N2CC(c3ccccc3)C2)cc1=O)(C(=O)NO)S(C)(=O)=O [Example 64, (2R)-N-Hydroxy-2-methyl-2-(methylsulfonyl)-4-[2-oxo-4-(3-phenylazetidin-1-yl)pyridin-1(2H)-yl]butanamide] | 8 | 8 | > 64
